The results in this text go back to patent publication US20100215579A1, “PHEN-NAPHTHALENE AND PHEN-QUINOLINE DERIVATIVES AND THEIR USE FOR BINDING AND IMAGING AMYLOID PLAQUES” (The Trustees of the University of Pennsylvania, priority 2007, published 2010).

Data set [1] concerns the target T1, amyloid plaques (Homo sapiens, UniProt P05067).
T1 construct: fibrillary Aβ plaques consisting predominately of aggregates of Aβ40 and Aβ42 peptides
The data set can be described thus: Ki values of Phen-Nap, Nap-Phen derivatives (Ki binding data).

The nature of data set [2]: Biodistribution in ICR mice after an iv injection. The class given is in vivo. The source says:
Biodistribution in ICR Mice After an iv Injection of [^18F][4-(6-{2-[2-(2-Fluoro-ethoxy)-ethoxy]-ethoxy}-naphthalen-2-yl)-phenyl]-methyl-amine in 1% EtOH/0.1% BSA in Water
(% dose/organ, avg of 3 mice±SD)
(% dose/g, avg of 3 mice±SD)
Biodistribution in ICR Mice After an iv Injection of [^18F]19a in 3% EtOH/0.1% BSA in Water
Biodistribution in ICR Mice After an iv Injection of [^18F]34a in 5% EtOH/0.1% BSA in Water
Biodistribution in ICR Mice After an iv Injection of [^18F]32a in 1% EtOH/0.1% BSA in Water

Data set [3] is described as follows: Log P (octanol/Na2HPO4 buffer pH 7.4). The class given is physicochemical. The following applies: pH 7.4.
The mark [4] stands for this setting: Blood, 2 min after iv injection.
Setting [5] is: Blood, 30 min after iv injection.
The mark [6] stands for this setting: Bone, 30 min after iv injection.
[7] abbreviates: Brain, 2 min after iv injection.
Where [8] appears, read: Brain, 30 min after iv injection.
[9] abbreviates: Heart, 2 min after iv injection.
[10] abbreviates: Heart, 30 min after iv injection.
Setting [11] is: Kidney, 2 min after iv injection.
[12] abbreviates: Kidney, 30 min after iv injection.
Where [13] appears, read: Kidney, 1 hr after iv injection.
[14] abbreviates: Kidney, 2 hr after iv injection.
Where [15] appears, read: Liver, 2 min after iv injection.
Setting [16] is: Liver, 30 min after iv injection.
The mark [17] stands for this setting: Lung, 30 min after iv injection.
The mark [18] stands for this setting: Muscle, 2 min after iv injection.
Setting [19] is: Muscle, 30 min after iv injection.
Where [20] appears, read: Muscle, 1 hr after iv injection.
[21] abbreviates: Muscle, 2 hr after iv injection.
The mark [22] stands for this setting: Skin, 30 min after iv injection.
Where [23] appears, read: Spleen, 2 min after iv injection.
[24] abbreviates: Spleen, 30 min after iv injection.
The mark [25] stands for this setting: Spleen, 1 hr after iv injection.
Where [26] appears, read: Spleen, 2 hr after iv injection.

T1 sequence (P05067 672-713 limits assumed): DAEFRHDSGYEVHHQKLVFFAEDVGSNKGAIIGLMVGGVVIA
T1 sequence (P05067 672-711 limits assumed): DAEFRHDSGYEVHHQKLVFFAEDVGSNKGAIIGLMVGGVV

As a reminder, the Ki is a dissociation constant, usually derived from enzyme kinetics or from competition with a known ligand. For `Nc1ccc(-c2ccc3nc(OCCOCCOCCF)ccc3c2)cc1` [Compound 33a, 4-(2-(2-(2-(2-fluoroethoxy)ethoxy)ethoxy)quinolin-6-yl)benzenamine], in data set [1], the Ki came to 0.102 ± 0.032 µM.
`Nc1ccc(-c2ccc3nc(OCCOCCOCCO)ccc3c2)cc1` [Compound 33b, 2-(2-(2-(6-(4-aminophenyl)quinolin-2-yloxy)ethoxy)ethoxy)ethanol] had a Ki in data set [1] of 0.109 µM.
For the molecule `CNc1ccc(-c2ccc3nc(OCCOCCOCCF)ccc3c2)cc1` [Compound 34a, 4-(2-(2-(2-(2-fluoroethoxy)ethoxy)ethoxy)quinolin-6-yl)-N-methylbenzenamine], the affinity in data set [1], expressed as Ki, was 0.0055 µM.
Take `CNc1ccc(-c2ccc3nc(OCCOCCOCCO)ccc3c2)cc1` [Compound 34b, 2-(2-(2-(6-(4-(methylamino)phenyl)quinolin-2-yloxy)ethoxy)ethoxy)ethanol]: in data set [1], the Ki is 0.005 µM.
A word on the Log P: it is the decadic logarithm of the partition coefficient of the neutral form, usually between octanol and water. Regarding `CNc1ccc2cc(-c3ccc(OCCOCCOCC[18F])cc3)ccc2c1` [[^18F]19a], the “% dose/g” value in data set [2] (setting [4]) was determined as 6.66 ± 0.86 % dose/g; in data set [2] (setting [5]) it was 4.15 ± 0.59 % dose/g; in data set [2] (Blood, 1 hr after iv injection), 3.14 ± 0.37 % dose/g; in data set [2] (Blood, 2 hr after iv injection), 3.05 ± 0.26 % dose/g; in data set [2] (Bone, 2 min after iv injection), 1.32 ± 0.18 % dose/g; in data set [2] (setting [6]) it was 0.78 ± 0.10 % dose/g. Also, the “% dose/g” value in data set [2] (Bone, 1 hr after iv injection) was 0.82 ± 0.21 % dose/g; in data set [2] (Bone, 2 hr after iv injection) it was 1.37 ± 0.15 % dose/g; in data set [2] (setting [7]) it was 5.55 ± 0.77 % dose/g; in data set [2] (setting [8]) it was 1.29 ± 0.19 % dose/g; in data set [2] (Brain, 1 hr after iv injection) it was 1.05 ± 0.20 % dose/g; in data set [2] (Brain, 2 hr after iv injection), 0.92 ± 0.10 % dose/g. Besides, the “% dose/g” value is given as 5.67 ± 0.42 % dose/g in data set [2] (setting [9]); 1.74 ± 0.19 % dose/g in data set [2] (setting [10]); 1.69 ± 0.35 % dose/g in data set [2] (Heart, 1 hr after iv injection); 1.40 ± 0.08 % dose/g in data set [2] (Heart, 2 hr after iv injection); 7.88 ± 0.94 % dose/g in data set [2] (setting [11]); 3.61 ± 0.98 % dose/g in data set [2] (setting [12]). The “% dose/g” value was found to be 3.82 ± 1.54 % dose/g in data set [2] (setting [13]); 2.41 ± 0.42 % dose/g in data set [2] (setting [14]); 27.0 ± 0.91 % dose/g in data set [2] (setting [15]); 21.5 ± 2.08 % dose/g in data set [2] (setting [16]); 14.1 ± 1.85 % dose/g in data set [2] (Liver, 1 hr after iv injection); 8.85 ± 0.76 % dose/g in data set [2] (Liver, 2 hr after iv injection). Moreover, the “% dose/g” value is reported as 9.19 ± 1.18 % dose/g in data set [2] (Lung, 2 min after iv injection); 3.44 ± 0.49 % dose/g in data set [2] (setting [17]); 2.68 ± 0.48 % dose/g in data set [2] (Lung, 1 hr after iv injection); 2.48 ± 0.48 % dose/g in data set [2] (Lung, 2 hr after iv injection); 0.77 ± 0.14 % dose/g in data set [2] (setting [18]); 0.75 ± 0.09 % dose/g in data set [2] (setting [19]). Moreover, the “% dose/g” value in data set [2] (setting [20]) worked out at 0.87 ± 0.03 % dose/g; in data set [2] (setting [21]) it was 0.62 ± 0.11 % dose/g; in data set [2] (Skin, 2 min after iv injection), 0.70 ± 0.04 % dose/g; in data set [2] (setting [22]), 1.37 ± 0.11 % dose/g; in data set [2] (Skin, 1 hr after iv injection), 1.32 ± 0.18 % dose/g; in data set [2] (Skin, 2 hr after iv injection), 0.77 ± 0.13 % dose/g. Besides, the “% dose/g” value in data set [2] (setting [23]) was found to be 6.94 ± 0.99 % dose/g; in data set [2] (setting [24]), 5.03 ± 1.18 % dose/g; in data set [2] (setting [25]), 3.60 ± 0.15 % dose/g; in data set [2] (setting [26]) it was 3.38 ± 0.52 % dose/g. For the same molecule, the “% dose/organ” value in data set [2] (setting [4]) came out at 11.1 ± 0.91 % dose/organ; in data set [2] (setting [5]) it was 6.94 ± 0.59 % dose/organ; in data set [2] (Blood, 1 hr after iv injection), 4.94 ± 0.09 % dose/organ; in data set [2] (Blood, 2 hr after iv injection), 5.19 ± 0.14 % dose/organ; in data set [2] (Bone, 2 min after iv injection), 4.42 ± 0.82 % dose/organ; in data set [2] (setting [6]), 2.59 ± 0.17 % dose/organ. Also, the “% dose/organ” value in data set [2] (Bone, 1 hr after iv injection) was 2.60 ± 0.41 % dose/organ; in data set [2] (Bone, 2 hr after iv injection), 4.67 ± 0.26 % dose/organ; in data set [2] (setting [7]) it was 2.51 ± 0.29 % dose/organ; in data set [2] (setting [8]), 0.59 ± 0.07 % dose/organ; in data set [2] (Brain, 1 hr after iv injection) it was 0.48 ± 0.06 % dose/organ; in data set [2] (Brain, 2 hr after iv injection), 0.42 ± 0.06 % dose/organ. Also, the “% dose/organ” value was found to be 0.63 ± 0.02 % dose/organ in data set [2] (setting [9]); 0.21 ± 0.02 % dose/organ in data set [2] (setting [10]); 0.18 ± 0.01 % dose/organ in data set [2] (Heart, 1 hr after iv injection); 0.16 ± 0.01 % dose/organ in data set [2] (Heart, 2 hr after iv injection); 3.06 ± 0.21 % dose/organ in data set [2] (setting [11]); 1.38 ± 0.26 % dose/organ in data set [2] (setting [12]). The “% dose/organ” value in data set [2] (setting [13]) amounted to 1.37 ± 0.25 % dose/organ; in data set [2] (setting [14]) it was 0.88 ± 0.12 % dose/organ; in data set [2] (setting [15]), 32.0 ± 1.81 % dose/organ; in data set [2] (setting [16]) it was 25.7 ± 0.95 % dose/organ; in data set [2] (Liver, 1 hr after iv injection), 15.7 ± 1.34 % dose/organ; in data set [2] (Liver, 2 hr after iv injection), 10.6 ± 0.65 % dose/organ. Besides, the “% dose/organ” value in data set [2] (Lung, 2 min after iv injection) was found to be 1.76 ± 0.20 % dose/organ; in data set [2] (setting [17]), 0.67 ± 0.05 % dose/organ; in data set [2] (Lung, 1 hr after iv injection), 0.41 ± 0.07 % dose/organ; in data set [2] (Lung, 2 hr after iv injection), 0.45 ± 0.11 % dose/organ; in data set [2] (setting [18]) it was 7.42 ± 1.87 % dose/organ; in data set [2] (setting [19]), 7.22 ± 0.42 % dose/organ. Moreover, the “% dose/organ” value was 7.86 ± 0.68 % dose/organ in data set [2] (setting [20]); 6.02 ± 0.62 % dose/organ in data set [2] (setting [21]); 2.51 ± 0.07 % dose/organ in data set [2] (Skin, 2 min after iv injection); 4.93 ± 0.08 % dose/organ in data set [2] (setting [22]); 4.46 ± 0.05 % dose/organ in data set [2] (Skin, 1 hr after iv injection); 2.81 ± 0.29 % dose/organ in data set [2] (Skin, 2 hr after iv injection). For the same molecule, the “% dose/organ” value in data set [2] (setting [23]) is given as 0.79 ± 0.29 % dose/organ; in data set [2] (setting [24]) it was 0.53 ± 0.04 % dose/organ; in data set [2] (setting [25]), 0.30 ± 0.00 % dose/organ; in data set [2] (setting [26]) it was 0.31 ± 0.02 % dose/organ. In addition, in data set [3], the “Log P” value is 2.60.
